Measurements published in patent US9273033B2, “Substituted pyridone derivatives as PDE10 inhibitors” (Merck Sharp & Dohme Corp., priority 2012, dated 2016).

Molecular target: human PDE10A2 (Homo sapiens (Human), UniProt Q9Y233)
Assay: PDE10 fluorescence polarization (IMAP FP) inhibition assay
Type: biochemical
Conditions: human PDE10A2, FAM-labeled cAMP substrate, read-out: PDE10A Ki
How it was run: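 Cytoplasmic lysate of AD293 cells transiently expressing human PDE10A2 (diluted to ~20% substrate conversion) incubated 30 min at room temperature with 50 nM FAM-cAMP in Tris pH 7.2 buffer with MgCl2, DTT. Activity read by IMAP fluorescence polarization. 0% inhibition set with 1% DMSO, 100% with reference PDE10 inhibitor.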

human PDE10A2, sequence (Q9Y233 267-1055): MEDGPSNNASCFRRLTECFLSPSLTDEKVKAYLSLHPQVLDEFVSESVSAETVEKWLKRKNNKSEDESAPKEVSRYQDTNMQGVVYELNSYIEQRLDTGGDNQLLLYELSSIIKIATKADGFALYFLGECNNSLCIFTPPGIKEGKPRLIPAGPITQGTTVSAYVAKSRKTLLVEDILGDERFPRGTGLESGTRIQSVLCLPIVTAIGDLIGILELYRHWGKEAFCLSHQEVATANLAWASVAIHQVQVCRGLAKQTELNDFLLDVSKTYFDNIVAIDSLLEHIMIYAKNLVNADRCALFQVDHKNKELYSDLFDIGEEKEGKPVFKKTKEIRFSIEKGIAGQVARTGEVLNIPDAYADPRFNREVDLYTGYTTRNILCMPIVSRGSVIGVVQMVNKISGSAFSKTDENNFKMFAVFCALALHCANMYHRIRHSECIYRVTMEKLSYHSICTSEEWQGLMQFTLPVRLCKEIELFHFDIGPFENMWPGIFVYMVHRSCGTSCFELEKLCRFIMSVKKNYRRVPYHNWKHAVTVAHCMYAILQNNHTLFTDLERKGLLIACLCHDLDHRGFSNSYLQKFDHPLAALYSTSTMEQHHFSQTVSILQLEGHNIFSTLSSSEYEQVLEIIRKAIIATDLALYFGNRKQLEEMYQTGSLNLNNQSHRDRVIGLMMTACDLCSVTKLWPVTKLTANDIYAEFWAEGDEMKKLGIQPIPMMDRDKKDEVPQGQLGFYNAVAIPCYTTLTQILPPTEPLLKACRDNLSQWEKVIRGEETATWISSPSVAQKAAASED

SMILES | Ki [nM]
COc1ccc([C@H]2C[C@@H]2COc2nc(C)ncc2-c2ccn(C)c(=O)c2C#N)nc1 [Example 104, 4-(4-(((1S,2S)-2-(5-methoxypyridin-2-yl)cyclopropyl)methoxy)-2-methylpyrimidin-5-yl)-1-methyl-2-oxo-1,2-dihydropyridine-3-carbonitrile] | 8.16
Cc1ccc([C@H]2C[C@@H]2COc2nc(C)ncc2-c2ccn(CC(F)(F)F)c(=O)c2)nc1 [Example 105, 4-(2-methyl-4-(((1S,2S)-2-(5-methylpyridin-2-yl)cyclopropyl)methoxy)pyrimidin-5-yl)-1-(2,2,2-trifluoroethyl)pyridin-2(1H)-one] | 0.74
Cc1ccc([C@H]2C[C@@H]2COc2nc(C)ncc2-c2ccn(CC(F)F)c(=O)c2)nc1 [Example 106, 1-(2,2-difluoroethyl)-4-(2-methyl-4-(((1S,2S)-2-(5-methylpyridin-2-yl)cyclopropyl)methoxy)pyrimidin-5-yl)pyridin-2(1H)-one] | 1.81
Cc1ncc(-c2ccn(C)c(=O)c2)c(OC[C@H]2C[C@@H]2c2ccc(Cl)cn2)n1 [Example 107, 4-(4-(((1S,2S)-2-(5-chloropyridin-2-yl)cyclopropyl)methoxy)-2-methylpyrimidin-5-yl)-1-methylpyridin-2(1H)-one] | 14.7
CCOC(=O)c1cn(C)c(=O)cc1-c1cnc(C)nc1OC[C@H]1C[C@@H]1c1ccc(OC)cn1 [Example 108, ethyl 4-(4-(((1S,2S)-2-(5-methoxypyridin-2-yl)cyclopropyl)methoxy)-2-methylpyrimidin-5-yl)-1-methyl-6-oxo-1,6-dihydropyridine-3-carboxylate] | 100
COc1ccc([C@H]2C[C@@H]2COc2nc(C)ncc2-c2ccn(CC#N)c(=O)c2)nc1 [Example 111, 2-(4-(4-(((1S,2S)-2-(5-methoxypyridin-2-yl)cyclopropyl)methoxy)-2-methylpyrimidin-5-yl)-2-oxopyridin-1(2H)-yl)acetonitrile] | 0.441
COc1ccc([C@H]2C[C@@H]2COc2nc(C)ncc2-c2ccn(CCC#N)c(=O)c2)nc1 [Example 112, 3-(4-(4-(((1S,2S)-2-(5-methoxypyridin-2-yl)cyclopropyl)methoxy)-2-methylpyrimidin-5-yl)-2-oxopyridin-1(2H)-yl)propanenitrile] | 0.944
COc1ccc([C@H]2C[C@@H]2COc2nc(C)ncc2-c2cc(C)n(C)c(=O)c2)nc1 [Example 113, 4-(4-(((1S,2S)-2-(5-methoxypyridin-2-yl)cyclopropyl)methoxy)-2-methylpyrimidin-5-yl)-1,6-dimethylpyridin-2(1H)-one] | 0.8
Cc1ncc(-c2ccn(C)c(=O)c2)c(OC[C@H]2C[C@@H]2c2ccc3c(n2)CCC3)n1 [Example 114, 4-(4-(((1S,2S)-2-(6,7-dihydro-5H-cyclopenta[b]pyridin-2-yl)cyclopropyl)methoxy)-2-methylpyrimidin-5-yl)-1-methylpyridin-2(1H)-one] | 0.378
COc1ccc([C@H]2C[C@@H]2COc2nc(C)ncc2-c2ccn(C)c(=O)c2SC)nc1 [Example 115, 4-(4-(((1S,2S)-2-(5-methoxypyridin-2-yl)cyclopropyl)methoxy)-2-methylpyrimidin-5-yl)-1-methyl-3-(methylthio)pyridin-2(1H)-one] | 18
Cc1ccc([C@H]2C[C@@H]2COc2nc(C)ncc2-c2ccn(C(F)F)c(=O)c2)nc1 [Example 116, 1-(difluoromethyl)-4-(2-methyl-4-(((1S,2S)-2-(5-methylpyridin-2-yl)cyclopropyl)methoxy)pyrimidin-5-yl)pyridin-2(1H)-one] | 1.83
COc1ccc([C@H]2C[C@@H]2COc2nc(C)ncc2-c2ccn(C(F)F)c(=O)c2)nc1 [Example 117, 1-(difluoromethyl)-4-(4-(((1S,2S)-2-(5-methoxypyridin-2-yl)cyclopropyl)methoxy)-2-methylpyrimidin-5-yl)pyridin-2(1H)-one] | 1.93
COCCn1ccc(-c2cnc(C)nc2OC[C@H]2C[C@@H]2c2ccc(OC)cn2)cc1=O [Example 118, 1-(2-methoxyethyl)-4-(4-(((1S,2S)-2-(5-methoxypyridin-2-yl)cyclopropyl)methoxy)-2-methylpyrimidin-5-yl)pyridin-2(1H)-one] | 0.553
Cc1ccc([C@H]2C[C@@H]2COc2nc(C)ncc2-c2ccn(CCC#N)c(=O)c2)nc1 [Example 119, 3-(4-(2-methyl-4-(((1S,2S)-2-(5-methylpyridin-2-yl)cyclopropyl)methoxy)pyrimidin-5-yl)-2-oxopyridin-1(2H)-yl)propanenitrile] | 1.58
Cc1ccc([C@H]2C[C@@H]2COc2nc(C)ncc2-c2ccn(CC#N)c(=O)c2)nc1 [Example 120, 2-(4-(2-methyl-4-(((1S,2S)-2-(5-methylpyridin-2-yl)cyclopropyl)methoxy)pyrimidin-5-yl)-2-oxopyridin-1(2H)-yl)acetonitrile] | 1.06
COc1ccc([C@H]2C[C@@H]2COc2nc(C)ncc2-c2ccn(CC(F)(F)F)c(=O)c2)nc1 [Example 121, 4-(4-(((1S,2S)-2-(5-methoxypyridin-2-yl)cyclopropyl)methoxy)-2-methylpyrimidin-5-yl)-1-(2,2,2-trifluoroethyl)pyridin-2(1H)-one] | 0.299

SMILES | Ki [nM]
C=CCn1ccc(-c2cnc(C)nc2OC[C@H]2C[C@@H]2c2ccc(OC)cn2)cc1=O [Example 122, 1-allyl-4-(4-(((1S,2S)-2-(5-methoxypyridin-2-yl)cyclopropyl)methoxy)-2-methylpyrimidin-5-yl)pyridin-2(1H)-one] | 0.458
C=CCn1ccc(-c2cnc(C)nc2OC[C@H]2C[C@@H]2c2ccc(C)cn2)cc1=O [Example 123, 1-allyl-4-(2-methyl-4-(((1S,2S)-2-(5-methylpyridin-2-yl)cyclopropyl)methoxy)pyrimidin-5-yl)pyridin-2(1H)-one] | 0.508
COC(=O)Cn1ccc(-c2cnc(C)nc2OC[C@H]2C[C@@H]2c2ccc(OC)cn2)cc1=O [Example 124, methyl 2-(4-(4-(((1S,2S)-2-(5-methoxypyridin-2-yl)cyclopropyl)methoxy)-2-methylpyrimidin-5-yl)-2-oxopyridin-1(2H)-yl)acetate] | 0.284
[2H]C([2H])([2H])n1ccc(-c2cnc(C)nc2OC[C@H]2C[C@@H]2c2ccc(C)cn2)cc1=O [Example 125, 1-methyl-4-(2-methyl-4-(((1S,2S)-2-(5-methylpyridin-2-yl)cyclopropyl)methoxy)pyrimidin-5-yl)pyridin-2(1H)-one] | 1.66
Cc1ccc([C@H]2C[C@@H]2COc2nc(C)ncc2-c2ccn(CCO)c(=O)c2)nc1 [Example 126, 1-(2-hydroxyethyl)-4-(2-methyl-4-(((1S,2S)-2-(5-methylpyridin-2-yl)cyclopropyl)methoxy)pyrimidin-5-yr)pyridin-2(1H)-one] | 1.01
COc1ccc([C@H]2C[C@@H]2COc2nc(C)ncc2-c2ccn(CCO)c(=O)c2)nc1 [Example 127, 1-(2-hydroxyethyl)-4-(4-(((1S,2S)-2-(5-methoxypyridin-2-yl)cyclopropyl)methoxy)-2-methylpyrimidin-5-yl)pyridin-2(1H)-one] | 0.64
COc1ccc([C@H]2C[C@@H]2COc2nc(C)ncc2-c2ccn(C)c(=O)c2)nc1 [Example 128, 4-(4-(((1S,2S)-2-(5-methoxypyridin-2-yl)cyclopropyl)methoxy)-2-methylpyrimidin-5-yl)-1-methylpyridin-2(1H)-one] | 1.54
COC(=O)Cn1ccc(-c2cnc(C)nc2OC[C@H]2C[C@@H]2c2ccc(C)cn2)cc1=O [Example 129, methyl 2-(4-(2-methyl-4-(((1S,2S)-2-(5-methylpyridin-2-yl)cyclopropyl)methoxy)pyrimidin-5-yl)-2-oxopyridin-1(2H)-yl)acetate] | 0.394
COc1ccc([C@H]2C[C@@H]2COc2nc(C)ncc2-c2ccn(CC(F)F)c(=O)c2)nc1 [Example 130, 1-(2,2-difluoroethyl)-4-(4-(((1S,2S)-2-(5-methoxypyridin-2-yl)cyclopropyl)methoxy)-2-methylpyrimidin-5-yl)pyridin-2(1H)-one] | 0.386
Cc1ncc(-c2cc(=O)n(C)cc2C)c(OC[C@H]2C[C@@H]2c2ccc3c(n2)CCC3)n1 [Example 131, 4-(4-(((1S,2S)-2-(6,7-dihydro-5H-cyclopenta[b]pyridin-2-yl)cyclopropyl)methoxy)-2-methylpyrimidin-5-yl)-l,5-dimethylpyridin-2(1H)-one] | 0.033
COc1ccc([C@H]2C[C@@H]2COc2nc(C)ncc2-c2cc(=O)n(C)cc2C2CC2)nc1 [Example 132, 5-cyclopropyl-4-(4-(((1S,2S)-2-(5-methoxypyridin-2-yl)cyclopropyl)methoxy)-2-methylpyrimidin-5-yl)-1-methylpyridin-2(1H)-one] | 0.583
Cc1ccc([C@H]2C[C@@H]2COc2nc(C)ncc2-c2ccn(C3CC3)c(=O)c2)nc1 [Example 133, 1-cyclopropyl-4-(2-methyl-4-(((1S,2S)-2-(5-methylpyridin-2-yl)cyclopropyl)methoxy)pyrimidin-5-yl)pyridin-2(1H)-one] | 0.935
COc1ccc([C@H]2C[C@@H]2COc2nc(C)ncc2-c2ccn(CC(=O)O)c(=O)c2)nc1 [Example 134, 2-(4-(4-(((1S,2S)-2-(5-methoxypyridin-2-yl)cyclopropyl)methoxy)-2-methylpyrimidin-5-yl)-2-oxopyridin-1(2H)-yl)acetic acid] | 9.85
Cc1ccc([C@H]2C[C@@H]2COc2nc(C)ncc2-c2cnn(C)c(=O)c2)nc1 [Example 135, 2-methyl-5-(2-methyl-4-(((1S,2S)-2-(5-methylpyridin-2-yl)cyclopropyl)methoxy)pyrimidin-5-yl)pyridazin-3(2H)-one] | 6.31
COc1ccc([C@H]2C[C@@H]2COc2nc(C)ncc2-c2cnn(C)c(=O)c2)nc1 [Example 136, 5-(4-(((1S,2S)-2-(5-methoxypyridin-2-yl)cyclopropyl)methoxy)-2-methylpyrimidin-5-yl)-2-methylpyridazin-3(2H)-one] | 5.74
